Source: US11155586B2, “Cystine knot scaffold platform” (Genentech, Inc., priority 2015, dated 2021)
Positions of bridges follow the written chain, without caps; N, C: chain ends. Residues, ends and D or L forms follow the SMILES beside them.

Columns and labels:
hVEGF(8-109) = molecular target: T1, hVEGF(8-109) (Homo sapiens, UniProt P15692); test: Spot phage ELISA; format: binding
T1 construct: hVEGF(8-109) or BSA were coated on 384-well MAXISORP™ immunoplates
T1 sequence (P15692 214-315): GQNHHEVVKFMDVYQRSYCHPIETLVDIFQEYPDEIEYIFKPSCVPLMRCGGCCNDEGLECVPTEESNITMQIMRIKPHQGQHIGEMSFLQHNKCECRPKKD
Protocol: After four rounds of binding selection, individual phage clones were picked and inoculated into 450 μl 2YT media containing 50 µg/ml Carbenecillin and M13-KO7 helper phage in 96-well blocks, which were grown at 37° C. overnight. The supernatant was analyzed with spot phage ELISA as follows: hVEGF(8-109) or BSA were coated on 384-well MAXISORP™ immunoplates and phage supernatant diluted (1:3) with PBT buffer was added to the wells. The plates were washed and bound phage was detected with anti-M13-HRP followed by TMB substrate. In these assays, phage binding to BSA alone was tested in parallel to assess background binding. Clones whose binding signals for hVEGF-A (8-109) were more than 3 times higher than to BSA (background) were considered positive. Positive clones were subjected to DNA sequence analysis.

hVEGF-A (8-109) = molecular target: T2, hVEGF-A (8-109) (Homo sapiens, UniProt P15692); test: SPR binding assay (BIACORE 3000, 37° C.)
T2 sequence (P15692 34-135 isoform P15692-4): T1 sequence (P15692 214-315)
Protocol: Depending on the format of the assay either a streptavidin sensor (SA) or a dextran-coated (CM5) sensor was utilized as described below.
For use with the SA sensor, VEGF-A was first biotinylated (no more than 2 biotin/VEGF-A) by incubating the protein with EZ-link NHS-PEG4-Biotin (Pierce) in a 1:1.5 molar ratio respectively, in PBS for 2 hours on ice. Reaction was then quenched by addition of 10 molar excess of Glycine pH 8.0 and the sample was buffer exchanged into PBS using an Amicon 0.5 mL 3000 MWCO ultra-centrifugal filters (EMD Millipore). The biotinylation state of the protein was verified by LC-MS analysis. Biotinylated VEGF-A was then captured on the surface until a resonance unit (RU) signal of about ˜400. For immobilization of VEGF-A on CM5 sensor, the surface was first activated with a mixture of N-ethyl-N′-(3-dimethylaminopropyl)carbodiimide hydrochloride and N-hydroxysuccinimide (EDC/NHS) according to the supplier instructions. VEGF-A was then diluted into coupling buffer (0.1 M Acetate Buffer, pH 5.0) and injected until the signal reached about ˜400 RU followed by a wash with 1 M ethanolamine pH 8.0 to quench remaining activated sites.
Following the capture step, a series of the peptide concentrations were prepared in HBS-EP buffer with matching DMSO concentrations to 0.1% and injected at a flow rate of […]. The resulting sensorgrams were then analyzed using a 1:1 binding model to obtain kinetic data and affinities using Scrubber 2.0 (BioLogic Software).

[1] = Table 37, surface plasmon resonance, VEGF-A
[2] = loop 2 variants based on VEGF_CKP9.63 framework, Table 27

Row | Compound | kd (hVEGF-A (8-109); [1]) | S/N (signal to noise ratio as compared to BSA control) (hVEGF(8-109); Table 27) | ELISA (hVEGF(8-109); [2]) | kd (hVEGF-A (8-109); hVEGF-A (8-109), Table 29) | other results
1 | CC[C@H](C)[C@@H]1NC(=O)[C@H](CC(N)=O)NC(=O)[C@@H](NC(=O)CN)CSSC[C@@H](C(=O)N[C@H](C(=O)N[C@H]2CSSC[C@@H](C(=O)NCC(=O)O)NC(=O)[C@H](CO)NC(=O)[C@H](CCC(N)=O)NC(=O)[C@H](Cc3ccc(O)cc3)NC(=O)[C@H](Cc3ccc(O)cc3)NC(=O)[C@H](CCC(N)=O)NC2=O)C(C)C)NC(=O)CNC(=O)[C@H](C)NC(=O)[C@H](CC(C)C)NC(=O)[C@@H]2CSSC[C@H](NC(=O)CNC(=O)[C@H](Cc3c[nH]c4ccccc34)NC(=O)[C@H](Cc3ccccc3)NC(=O)[C@@H]3CCCN3C(=O)[C@H](CC(C)C)NC(=O)[C@H](CCSC)NC1=O)C(=O)NCC(=O)N[C@@H](CCC(N)=O)C(=O)N[C@@H](CO)C(=O)N[C@@H](Cc1ccccc1)C(=O)N[C@@H](CCC(=O)O)C(=O)N2 [VEGF_CKP9.54.1] (H-GCNIMLPFWGCGQSFECLAGCVCQYYQSCG-OH; disulfide 2-21, 11-17, 23-29 (inferred); N-terminus and C-terminus assumed) | 0.36 | – | – | – | S/N (signal to noise ratio as compared to BSA control) (hVEGF(8-109); Table 26): 29.9; ELISA (hVEGF(8-109); loop 2 variants based on 9.54 framework, Table 26): 2.4
2 | CSCC[C@@H]1NC(=O)[C@H](C(C)C)NC(=O)[C@H](CC(=O)O)NC(=O)[C@@H](NC(=O)CN)CSSC[C@@H](C(=O)N[C@H](C(=O)N[C@H]2CSSC[C@@H](C(=O)NCC(=O)O)NC(=O)[C@H](CO)NC(=O)[C@H](CC(N)=O)NC(=O)[C@H](Cc3ccc(O)cc3)NC(=O)[C@H](Cc3c[nH]c4ccccc34)NC(=O)[C@H](Cc3c[nH]cn3)NC2=O)C(C)C)NC(=O)CNC(=O)[C@H](C)NC(=O)[C@H](CC(C)C)NC(=O)[C@@H]2CSSC[C@H](NC(=O)CNC(=O)[C@H](Cc3c[nH]c4ccccc34)NC(=O)[C@H](Cc3ccc(O)cc3)NC(=O)[C@@H]3CCCN3C(=O)[C@H](CCC(N)=O)NC1=O)C(=O)NCC(=O)N[C@@H](CCC(=O)O)C(=O)N[C@@H](CC(N)=O)C(=O)N[C@@H](Cc1ccccc1)C(=O)N[C@@H](CC(C)C)C(=O)N2 [VEGF_CKP9.63.1] (H-GCDVMQPYWGCGENFLCLAGCVCHWYNSCG-OH; disulfide 2-21, 11-17, 23-29 (inferred); N-terminus and C-terminus assumed) | – | 25.2 | 2.0 | 0.37 | –
3 | CSCC[C@@H]1NC(=O)[C@H](CC(=O)O)NC(=O)[C@H](CCCNC(=N)N)NC(=O)CNC(=O)[C@@H]2CSSC[C@H](NC(=O)[C@H](CC(=O)O)NC1=O)C(=O)N[C@@H](CC(C)C)C(=O)N[C@@H](C)C(=O)NCC(=O)N[C@H](C(=O)N[C@H](C(=O)N[C@H]1CSSC[C@@H](C(=O)NCC(=O)O)NC(=O)[C@H](CO)NC(=O)[C@H](CC(N)=O)NC(=O)[C@H](Cc3ccc(O)cc3)NC(=O)[C@H](Cc3c[nH]c4ccccc34)NC(=O)[C@H](Cc3c[nH]cn3)NC1=O)C(C)C)CSSC[C@H](NC(=O)CN)C(=O)N[C@@H](CC(=O)O)C(=O)N[C@@H](C(C)C)C(=O)N[C@@H](CCSC)C(=O)N[C@@H](CCC(N)=O)C(=O)N1CCC[C@H]1C(=O)N[C@@H](Cc1ccc(O)cc1)C(=O)N[C@@H](Cc1c[nH]c3ccccc13)C(=O)NCC(=O)N2 [VEGF_CKP9.63.27] (H-GCDVMQPYWGCGRDMDCLAGCVCHWYNSCG-OH; disulfide 2-21, 11-17, 23-29 (inferred); N-terminus and C-terminus assumed) | – | 26.0 | 2.1 | 0.15 | –
4 | CSCC[C@@H]1NC(=O)[C@H](CCC(=O)O)NC(=O)[C@@H]2CSSC[C@H](NC(=O)[C@H](CC(=O)O)NC(=O)[C@H](Cc3ccccc3)NC(=O)[C@H](CC(=O)O)NC1=O)C(=O)N[C@@H](CC(C)C)C(=O)N[C@@H](C)C(=O)NCC(=O)N[C@H](C(=O)N[C@H](C(=O)N[C@H]1CSSC[C@@H](C(=O)NCC(=O)O)NC(=O)[C@H](CO)NC(=O)[C@H](CC(N)=O)NC(=O)[C@H](Cc3ccc(O)cc3)NC(=O)[C@H](Cc3c[nH]c4ccccc34)NC(=O)[C@H](Cc3c[nH]cn3)NC1=O)C(C)C)CSSC[C@H](NC(=O)CN)C(=O)N[C@@H](CC(=O)O)C(=O)N[C@@H](C(C)C)C(=O)N[C@@H](CCSC)C(=O)N[C@@H](CCC(N)=O)C(=O)N1CCC[C@H]1C(=O)N[C@@H](Cc1ccc(O)cc1)C(=O)N[C@@H](Cc1c[nH]c3ccccc13)C(=O)NCC(=O)N2 [VEGF_CKP9.63.44] (H-GCDVMQPYWGCEMDFDCLAGCVCHWYNSCG-OH; disulfide 2-21, 11-17, 23-29 (inferred); N-terminus and C-terminus assumed) | – | 19.5 | 1.7 | 0.11 | –
5 | CSCC[C@@H]1NC(=O)[C@H](C(C)C)NC(=O)[C@H](CC(=O)O)NC(=O)[C@@H](NC(=O)CN)CSSC[C@@H](C(=O)N[C@H](C(=O)N[C@H]2CSSC[C@@H](C(=O)NCC(=O)O)NC(=O)[C@H](CO)NC(=O)[C@H](CC(N)=O)NC(=O)[C@H](Cc3ccc(O)cc3)NC(=O)[C@H](Cc3c[nH]c4ccccc34)NC(=O)[C@H](Cc3c[nH]cn3)NC2=O)C(C)C)NC(=O)CNC(=O)[C@H](C)NC(=O)[C@H](CC(C)C)NC(=O)[C@@H]2CSSC[C@H](NC(=O)CNC(=O)[C@H](Cc3c[nH]c4ccccc34)NC(=O)[C@H](Cc3ccc(O)cc3)NC(=O)[C@@H]3CCCN3C(=O)[C@H](CCC(N)=O)NC1=O)C(=O)NCC(=O)N[C@@H](CCC(=O)O)C(=O)N[C@@H](CO)C(=O)N[C@@H](CC(C)C)C(=O)N[C@@H](CO)C(=O)N2 [VEGF_CKP9.63.69] (H-GCDVMQPYWGCGESLSCLAGCVCHWYNSCG-OH; disulfide 2-21, 11-17, 23-29 (inferred); N-terminus and C-terminus assumed) | – | 23.7 | 2.9 | 0.20 | –
6 | CSCC[C@@H]1NC(=O)[C@H](CC(C)C)NC(=O)[C@H](CCC(N)=O)NC(=O)[C@@H](NC(=O)CN)CSSC[C@@H](C(=O)N[C@H](C(=O)N[C@H]2CSSC[C@@H](C(=O)NCC(=O)O)NC(=O)[C@H](CO)NC(=O)[C@H](CCC(N)=O)NC(=O)[C@H](Cc3ccc(O)cc3)NC(=O)[C@H](Cc3c[nH]c4ccccc34)NC(=O)[C@H](Cc3c[nH]cn3)NC2=O)C(C)C)NC(=O)CNC(=O)[C@H](C)NC(=O)[C@H](CC(C)C)NC(=O)[C@@H]2CSSC[C@H](NC(=O)CNC(=O)[C@H](Cc3c[nH]c4ccccc34)NC(=O)[C@H](Cc3ccccc3)NC(=O)[C@@H]3CCCN3C(=O)[C@H](CCC(N)=O)NC1=O)C(=O)N[C@@H](CCCCN)C(=O)N[C@@H](CCC(N)=O)C(=O)N[C@@H](CC(=O)O)C(=O)N[C@@H](CO)C(=O)N[C@@H](CC(=O)O)C(=O)N2 [VEGF_CKP9] (H-GCQLMQPFWGCKQDSDCLAGCVCHWYQSCG-OH; disulfide 2-21, 11-17, 23-29 (inferred); N-terminus and C-terminus assumed) | 40 | – | – | – | S/N (signal to noise ratio as compared to BSA control) (hVEGF(8-109); Table 19): 36.0; S/N (signal to noise ratio as compared to BSA control) (hVEGF(8-109); Table 22): 7.4; S/N (signal to noise ratio as compared to BSA control) (hVEGF(8-109); Table 23): 11.6; S/N (signal to noise ratio as compared to BSA control) (hVEGF(8-109); Table 24): 7.4; ELISA (hVEGF(8-109); VEGF_CKP9 Loop1/Loop5 affinity-matured variants, Table 24): 0.4; ELISA (hVEGF(8-109); VEGF_CKP9 Loop1 affinity-matured variants, Table 22): 0.4; ELISA (hVEGF(8-109); VEGF_CKP9 Loop5 affinity-matured variants, Table 23): 0.9; ELISA (hVEGF(8-109); spot phage ELISA signal, EETI-II-based binders against hVEGF-A, Table 19): 3.3
